Read-outs that look alike come from different tables or passages of the source.
Assay: In vivo drug metabolism (pharmacokinetics) in mice, iv and po
Set-up: species or system C57 male mice
Settings: for apparent volume of distribution (Vss), in words / area under curve (AUC) through injection administration route, in words / clearance rate (CL), in words: iv; for Tmax / AUC / clearance / half-life / Vd / C0 / Cmax: male, plasma; for Tmax: C57, mouse, 10 mg/kg; for AUC / clearance / half-life / Vd / C0 / Cmax: mouse; for clearance: read-out: CL iv; for Vd: read-out: Vss iv; for F po: oral bioavailability, po 10 mg/kg vs iv 1 mg/kg
Experimental: Experimental animals: C57 male mice (purchased from Beijing Vital River Laboratory Animal Technology Co., Ltd.), bred for 6-8 weeks and weighing 20-30 g, 3 mice in each group of iv/po groups, a total of 6 groups.
Preparation of Sample Solutions:
(1) Preparation of sample solution (1 mg/kg, 5 mL/kg) for injection (iv): 1 mg of the sample to be tested was dissolved in 0.5 mL DMSO, mixed by a vortex mixer, and treated ultrasonically to obtain a stock solution (2 mg/mL); 0.10 mL of the stock solution (2 mg/mL) was added to a vial, then 0.4 mL of PEG400 and 0.5 mL of water were added, and mixed by a vortex shaker, treated ultrasonically to obtain a sample solution with a concentration of 0.2 mg/mL.
(2) Preparation of sample solution (10 mg/kg, 10 mL/kg) for oral administration (po): 1 mg of the sample to be tested was dissolved in 1 mL of “0.5% CMC/0.1% Tween-80 aqueous solution”, mixed by a vortex mixer, and treated ultrasonically to obtain a suspension of the sample to be tested with a concentration of 1 mg/mL.
Liquid Chromatography Method:
(1) Chromatographic column: Waters XSELECT CSH C18, 2.5 μm 2.1×50 mm chromatographic column.
(2) Mobile phase: Phase A: 5% acetonitrile in aqueous solution (0.1% formic acid); Phase B: 95% acetonitrile in aqueous solution (0.1% formic acid).
(3) Flow rate: 0.6 mL/min.
(4) Sampling volume: 20 μL.
For each compound, po group and iv group were set for administration. All experimental animals were fasted overnight before administration, and all administration was performed at room temperature.
Sampling time: for iv group, sampling was performed at 0.083, 0.25, 0.5, 1, 2, 4, 8 and 24 hours after injection administration (iv); for po group, sample was performed at 0.25, 0.5, 1, 2, 4, 8 and 24 hours after oral administration (po).
(1) At each time point, about 0.03 mL of blood was collected. The blood of each sample was transferred to a plastic microcentrifuge tube containing heparin sodium anticoagulant, mixed well with the anticoagulant, and then cooled on ice and centrifuged.
(2) The blood sample was centrifuged at 4000 rpm for 5 minutes at 4° C. to obtain plasma.
(3) The samples was stored in a refrigerator at −75±15° C. for later test.
Analysis and Identification:
The mixed solution of acetonitrile and water (1:1) was used to dilute the stock solution to prepare a series of working solutions.
3 μL of working solution (5, 10, 20, 50, 100, 500, 1000, 5000, 10000 ng/mL) was added to 30 μL of C57 mouse blank plasma to obtain a standard solution with a concentration of 0.5-1000 ng/mL (0.5, 1, 2, 5, 10, 50, 100, 500, 1000 ng/mL), in total of 33 μL. Four quality control samples of 1 ng/mL, 2 ng/mL, 50 ng/mL and 800 ng/mL were used to calibrate the standard curve.
(2) The quality control samples were prepared on the day of analysis, and the method was the same as the standard solution.
(3) 200 μL of acetonitrile containing internal standard solution was added to 33 μL of standard samples, 33 μL of quality control samples and 33 μL of unknown sample (30 μL of plasma and 3 μL of blank solution) to precipitate protein, respectively. The samples were mixed by a vortex mixer for 30 seconds and mixed well. The precipitated samples were centrifuged for 15 minutes at 4° C. and 4000 rpm.
(4) The supernatant was pipetted quantitatively and diluted by 3 times with water, then the diluted supernatant was loaded and quantitatively analyzed by liquid chromatography-mass spectrometry technology.
(5) Detection data were obtained, and pharmacokinetic parameters such as T1/2, Cmax, AUC, AUC, CL, Vss, F were calculated.

[1] = po, po 10 mg/kg, read-out: Tmax po
[2] = po, po, read-out: peak time Tmax
[3] = iv 1 mg/kg, C57 mice, read-out: AUC iv
[4] = iv 1 mg/kg, C57 mice, read-out: T1/2 iv (converted)
[5] = po 10 mg/kg, C57 mice, read-out: AUC po
[6] = po 10 mg/kg, C57 mice, read-out: T1/2 po (converted)

| Structure (SMILES) | highest blood concentration C0/Cmax, in words (C57 mice) | apparent volume of distribution (Vss), in words (C57 mice) | area under curve (AUC) through injection administration route, in words (C57 mice) | Tmax [1] [min] | Tmax [2] [min] | AUC [3] [ng·h/mL] | clearance (iv 1 mg/kg, C57 mice) [mL/min/kg] | half-life [4] [min] | Vd (iv 1 mg/kg, C57 mice) [L/kg] | AUC [5] [ng·h/mL] | half-life [6] [min] | C0 (iv 1 mg/kg, C57 mice) [ng/mL] | Cmax (po 10 mg/kg, C57 mice) [ng/mL] | clearance rate (CL), in words (C57 mice) | F po (C57 mice) [%] | AUC through oral administration, in words (po, C57 mice) | half-life T1/2, in words (C57 mice) |
| --- | --- | --- | --- | --- | --- | --- | --- | --- | --- | --- | --- | --- | --- | --- | --- | --- | --- |
| O=c1ccc2cnc3ccc(-c4cccnc4F)cc3c2n1-c1cccc(C(F)(F)F)c1 [HTL-6-48, 9-[3-(2-fluoro)pyridyl]-2-oxo-1-[3-(trifluoromethyl)phenyl]-1,2-dihydrobenzo [h][1,6]naphthyridine] | relatively high | lower | relatively high | 15 | 15 | 651 | 25.6 | 50.4 | 1.59 | 1330 | 59.4 | 651 | 1290 | – | – | – | – |
| CCC(=O)Nc1ccc(-c2ccc3ncc4ccc(=O)n(-c5cccc(C(F)(F)F)c5)c4c3c2)cn1 [HTL-6-45, 9-[3-(6-propionylamino)pyridyl]-2-oxo-1-[3-(trifluoromethyl)phenyl]-1,2-dihydrobenzo[h][1,6]naphthyridine] | – | slightly higher | – | 15 | 15 | 95 | 176 | 19.4 | 3.25 | 35.4 | 50.4 | 398 | 42.9 | relatively higher clearance rate | 3.89 | – | – |
| O=c1ccc2cnc3ccc(-c4ccc(F)nc4)cc3c2n1-c1cccc(C(F)(F)F)c1 [HTL-7-01, 9-[3-(6-fluoro)pyridyl]-2-oxo-1-[3-(trifluoromethyl)phenyl]-1,2-dihydrobenzo[h][1,6]naphthyridine] | – | lower | relatively high | 30 | > 30 | 592 | 27.8 | 63 | 2.29 | 699 | 121 | 574 | 298 | – | 12.2 | lower | – |
| CN1CCN(c2ccc(-c3ccc4ncc5ccc(=O)n(-c6cccc(C(F)(F)F)c6)c5c4c3)cn2)CC1 [HTL-7-17, 9-{3-[6-(4-methylpiperazin-1-yl)pyridyl]}-2-oxo-1-[3-(trifluoromethyl)phenyl]-1,2-dihydrobenzo[h][1,6]naphthyridine] | – | slightly higher | – | 20 | 19.8 | 168 | 99 | 43.1 | 3.59 | 357 | 94.8 | 364 | 144 | relatively higher clearance rate | – | – | – |
| COc1ccc(-c2ccc3ncc4ccc(=O)n(-c5cccc(C(F)(F)F)c5)c4c3c2)cn1 [HTL-7-03, 9-[3-(6-methoxy)pyridyl]-2-oxo-1-[3-(trifluoromethyl)phenyl]-1,2-dihydrobenzo[h][1,6]naphthyridine] | – | slightly higher | relatively high | 40 | > 30 | 668 | 24.1 | 110 | 3.24 | 1640 | 74.4 | 596 | 565 | – | – | – | relatively longer half-life |

— patent US20220220106A1, “QUINOLINE COMPOUNDS AND PHARMACEUTICAL COMPOSITIONS AND USES THEREOF” (Academy of Military Medical Sciences, priority 2019, published 2022)
